Results: paper PMC4648318, “A novel 2,5-diaminopyrimidine-based affinity probe for Bruton’s tyrosine kinase” (Scientific Reports, 2015)
“And” between values parts separate entries of the source, which are not always exact repeats. Equal entries are not always repeated. “Also recorded” adds a separate entry of the source. Structures can show the parent of a compound that is named as a salt.

Key:
Btk [1] = biological target: T1, Btk (Homo sapiens, UniProt Q06187); assay: Kinase enzymology assay (HTRF KinEase); type: biochemical; set-up: purchased Carna Biosciences; details: enzymatic assay; values marked * are a single run of duplicates, all others are means of two individual measurements
Procedure: Kinases were purchased from Carna Biosciences. Kinase enzymology assays were performed according to the protocols specified for the HTRF® KinEase™ assays sold by Cisbio Bioassays.
Target sequence in this assay (Q06187 whole entry): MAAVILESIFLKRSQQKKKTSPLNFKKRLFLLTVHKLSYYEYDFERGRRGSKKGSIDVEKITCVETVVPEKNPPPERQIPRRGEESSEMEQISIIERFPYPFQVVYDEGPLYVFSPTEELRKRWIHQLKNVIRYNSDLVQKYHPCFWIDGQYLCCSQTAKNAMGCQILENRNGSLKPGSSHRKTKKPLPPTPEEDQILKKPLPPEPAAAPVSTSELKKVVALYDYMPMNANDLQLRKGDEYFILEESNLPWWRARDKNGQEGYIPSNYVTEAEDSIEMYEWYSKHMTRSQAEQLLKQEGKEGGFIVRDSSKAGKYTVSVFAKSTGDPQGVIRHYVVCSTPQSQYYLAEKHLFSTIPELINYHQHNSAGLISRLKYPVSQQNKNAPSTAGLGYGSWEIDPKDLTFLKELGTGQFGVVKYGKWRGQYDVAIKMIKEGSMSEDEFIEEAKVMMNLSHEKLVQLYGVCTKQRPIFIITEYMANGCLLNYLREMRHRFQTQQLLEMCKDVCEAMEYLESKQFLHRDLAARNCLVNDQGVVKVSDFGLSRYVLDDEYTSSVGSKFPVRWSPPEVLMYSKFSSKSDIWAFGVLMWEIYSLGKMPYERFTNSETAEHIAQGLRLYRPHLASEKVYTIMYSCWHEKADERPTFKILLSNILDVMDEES

Btk [2] = biological target: T1, Btk; assay: Kinetic study of Btk inhibitors (kinact/Ki, HTRF KinEase); type: biochemical; set-up: purchased Carna Biosciences; details: 0.5 nM Btk, room temperature, preincubation 0-20 min
Procedure: The kinase assays were performed at room temperature. The compounds with serial dilution in DMSO were added into reaction buffer with 0.5 nM Btk, incubating with different periods of time (0 min, 4 min, 8 min, 12 min, 16 min, and 20 min). Enzyme reaction was started by adding ATP and substrate to the reaction mixture. The enzyme activity was measured with HTRF® KinEase™ assays. The data analysis was guided by the book, Enzyme Kinetics by Hans Bisswanger[16].
Target sequence in this assay (Q06187 whole entry): as above

Btk [3] = biological target: T1, Btk; assay: Recombinant protein labeling assay; type: binding; details: recombinant Btk (0.5 μg)
Description: […] The gel was then blotted, and the total Btk levels were detected by standard […]. The concentration course labeling procedure was similar to that for the time course labeling.
Target sequence in this assay (Q06187 whole entry, species assumed): as the sequence (Q06187 whole entry) above

Btk [4] = biological target: T1, Btk; assay: Cellular labeling of Btk by probe 14 in OCI-Ly7 cells; type: cell-based
Procedure: Labeling of Btk by probe 14. A total of 1.5 × 10^6 cells were treated with probe 14 at 1 μM for different lengths of times (5 min, 10 min, 20 min, 30 min, 1 h, 2 h, 3 h, or 4 h), washed, lysed in cell lysis buffer (Beyotime) containing 1 mM PMSF and 10 mM NaF (Invitrogen), and centrifuged. The sample protein concentrations were quantified using a NanoDrop 2000 spectrophotometer, and the samples were adjusted to the same concentration then analyzed by SDS/PAGE and fluorescent gel scanning (fluorescence, CY2). The gel was then blotted, and the total Btk levels were detected by a standard Western blot. The concentration course labeling procedure was similar to that for the time course labeling.
Target sequence in this assay (Q06187 whole entry): as above

Jurkat cells = assay: Cellular labeling by probe 14 in Jurkat cells (T-cell line that does not express Btk); type: cell-based; details: T-cell line without Btk (Supplementary Figure S1)
Procedure: (§1) Supplementary figure S1: competition experiment in OCI-Ly7 cells (a) and Jurkat cells (b). 1.5×10^6 cells were pre-incubated with compounds for 1h at 1μM before labeling with probe 14 for 2h at 0.5μM. Then, lysed, quantified and analyzed by SDS/PAGE and fluorescent gel scanning (fluorescence, CY2).

Btk [5] = biological target: T1, Btk; assay: Competition assay: blocking of probe 14 labeling of Btk in cells; type: cell-based; details: inhibitor 1 μM for 1 hour, then 0.5 μM probe 14 for 2 hours, OCI-Ly7 cells
Procedure: as §1, with “Competition assay. LY7 cells were preincubated with the compounds (1 μM) for 1 h before labeling with probe 14 under the proper time and concentration conditions. Then, the cells were lysed and analyzed as described above. Supplementary” for “Supplementary”
Target sequence in this assay (Q06187 whole entry): as above

Compound | IC50 (Btk [1]) | further results
C=CC(=O)N[C@@H](Cc1cnc[nH]1)C(=O)Nc1cccc(Nc2ncc(NC(=O)c3cc(NC(=O)c4cccc(C(F)(F)F)c4)ccc3C)cn2)c1 [Compound 12] | 64.2 ± 4.95 nM | 
C=CC(=O)N[C@@H](C)C(=O)Nc1cccc(Nc2ncc(NC(=O)c3cc(NC(=O)c4cccc(C(F)(F)F)c4)ccc3C)cn2)c1 [Compound 5] | 44 ± 8.13 nM | 
C=CC(=O)N[C@@H](CC(N)=O)C(=O)Nc1cccc(Nc2ncc(NC(=O)c3cc(NC(=O)c4cccc(C(F)(F)F)c4)ccc3C)cn2)c1 [Compound 9] | 15 to 20 nM and 19.8 nM | 
C=CC(=O)N[C@@H](CCCCNC(=O)CCC1=[N+]2C(=Cc3c(C)cc(C)n3[B-]2(F)F)C=C1)C(=O)Nc1cccc(Nc2ncc(NC(=O)c3cc(NC(=O)c4cccc(C(F)(F)F)c4)ccc3C)cn2)c1 [Compound 14, (S)-3-(3-((5-acrylamido-6-((3-((5-(2-methyl-5-(3-(trifluoromethyl)benzamido)benzamido)pyrimidin-2-yl)amino)phenyl)amino)-6-oxohexyl)amino)-3-oxopropyl)-5,5-difluoro-7,9-dimethyl-5H-dipyrrolo[1,2-c:2',1'-f][1,3,2]diazaborinin-4-ium-5-uide] |  | Incubation time at which fluorescent signals reached a maximum (Btk [3]): 2 h; Saturation rate of labeling compared with PCI-33380 (Btk [4]; OCI-Ly7 cells (Supplementary Figure S2)): slower saturation rate; Probe concentration at which Btk band intensity reached saturation (Btk [4]; OCI-Ly7 cells, concentration course): 0.5 µM; Incubation time sufficient for labeling (Btk [4]; OCI-Ly7 cells, time course): 2 h; Labeling in Jurkat cells (Jurkat cells): no significant labeling
C=CC(=O)NCCC(=O)Nc1cccc(Nc2ncc(NC(=O)c3cc(NC(=O)c4cccc(C(F)(F)F)c4)ccc3C)cn2)c1 [Compound 3] | 26.7 ± 5.74 nM | 
C=CC(=O)N[C@@H](CO)C(=O)Nc1cccc(Nc2ncc(NC(=O)c3cc(NC(=O)c4cccc(C(F)(F)F)c4)ccc3C)cn2)c1 [Compound 8] | 27.4 ± 2.6 nM | 
C#CCCC(=O)NCCCC[C@H](NC(=O)C=C)C(=O)Nc1cccc(Nc2ncc(NC(=O)c3cc(NC(=O)c4cccc(C(F)(F)F)c4)ccc3C)cn2)c1 [Compound 13] | 38 nM and 37.5 nM | kinact/KI (Btk [2]): 75000 ± 8e+08 M⁻¹ s⁻¹
C=CC(=O)Nc1cccc(Nc2ncc(NC(=O)c3cc(NC(=O)c4cccc(C(F)(F)F)c4)ccc3C)cn2)c1 [Compound 2] |  | Blocking of the labeling of Btk by probe 14 (Btk [5]): effectively blocked; also recorded: completely competed off
C=CC(=O)N[C@@H](CCC(=O)O)C(=O)Nc1cccc(Nc2ncc(NC(=O)c3cc(NC(=O)c4cccc(C(F)(F)F)c4)ccc3C)cn2)c1 [Compound 10] | 15 to 20 nM and 14.7 nM | 

Further lines, with some results ahead:

IC50 (Btk [1]) | Compound | further results
> 100 nM and 114 nM | C=CC(=O)N[C@@H](CC(C)C)C(=O)Nc1cccc(Nc2ncc(NC(=O)c3cc(NC(=O)c4cccc(C(F)(F)F)c4)ccc3C)cn2)c1 [Compound 6, (S)-N-(2-((3-(2-acrylamido-4-methylpentanamido)phenyl)amino)pyrimidin-5-yl)-2-methyl-5-(3-(trifluoromethyl)benzamido)benzamide] | 
63 nM and 62.8 nM | C=CC(=O)N[C@@H](CCCCN)C(=O)Nc1cccc(Nc2ncc(NC(=O)c3cc(NC(=O)c4cccc(C(F)(F)F)c4)ccc3C)cn2)c1 [Compound 11, Trifluoroacetate of (S)-N-(2-((3-(2-acrylamido-6-aminohexanamido)phenyl)amino)pyramidin-5-yl)-2-methyl-5-(3-(trifluoromethyl)benzamido)benzamide] | kinact/KI (Btk [2]): 135000 ± 4e+08 M⁻¹ s⁻¹
> 100 nM and 140 nM | C=CC(=O)N[C@@H](Cc1ccccc1)C(=O)Nc1cccc(Nc2ncc(NC(=O)c3cc(NC(=O)c4cccc(C(F)(F)F)c4)ccc3C)cn2)c1 [Compound 7] | 
16.7 nM | C=CC(=O)NCC(=O)Nc1cccc(Nc2ncc(Nc3cc(NC(=O)c4cccc(C(F)(F)F)c4)ccc3C)cn2)c1 [Compound 1] | 
52.9 ± 0.95 nM | C=CC(=O)N1CCC[C@H]1C(=O)Nc1cccc(Nc2ncc(NC(=O)c3cc(NC(=O)c4cccc(C(F)(F)F)c4)ccc3C)cn2)c1 [Compound 4] | 
